Tested on: B16 Melanoma
Conditions: in vivo

Row | Compound | T-C
1 | O=P1(N(CCCl)CCCl)NCCCO1 (centres unmarked) [Cyclophosphamide, cyclophosphamide] | 27 days
2 | O=P1(NCCCl)OCCCN1CCCl (centres unmarked) [Ifosfamide] | 18 days
